Four compounds from patent US20090275503A1, “DIASTEREOMERIC PEPTIDES FOR MODULATING T CELL IMMUNITY” (Yeda Research and Developent Co., Ltd. at the Weizman …, priority 2005, published 2009) can be followed below.

Non-standard residues stand in square brackets, D forms with d. Residues, ends and D or L forms follow the SMILES beside them. No end group written: not given here.

The subject of data set [1] is Lewis rats. As to the kind of experiment: Adjuvant arthritis (AA) in Lewis rats (Part B). The conditions noted are these: for Mean maximum AA score: 100 μg amidated peptide per rat at AA induction, maximum possible score 16; for Effect on adjuvant arthritis (clinical score and ankle swelling): 100 μg amidated peptide per rat with the antigen at AA induction. Type of data set: in vivo, rat. On the procedure: (§1) To test the effect of CP on T-cell activation in vivo, we used AA as a model system. AA was induced by injecting 50 μl of Mt suspended in IFA (0.5 mg/ml) at the base of the tail. At the time of AA induction, each rat also received 100 μg of L-CP, D-CP or 2G CP control peptide (or PBS) dissolved in 50 μl of IFA and mixed with Mt/IFA used to induce AA. The day of AA induction was designated as day 0. Disease severity was assessed by direct observation of all 4 limbs in each animal. A relative score between 0 and 4 was assigned to each limb, based on the degree of joint inflammation, redness and deformity; thus the maximum possible score for an individual animal was 16. The mean AA score (±SEM) is shown for each experimental group. Arthritis was also quantified by measuring hind limb diameter with a caliper. Measurements were taken on the day of the induction of AA and 26 days later (at the peak of AA); the results are presented as the mean±SEM of the difference between the two values for all the animals in each group. The person who scored the disease was blinded to the identity of the groups.
To test the inhibitory effects of CP on the activation of specific T cells in vivo, we used the adjuvant arthritis (AA) model. Immunization of Lewis rats with Mt in oil triggers AA, an experimental autoimmune disease driven by Mt-specific T cells cross-reactive with self-antigens. Mt176-90-specific T cells are detectable upon induction of AA; indeed the A2b T-cell clone cross-reacts with cartilage and mediates AA. Since L and D-CP inhibited the T-cell response of primed LNC and of clone A2b to PPD and […] in vitro (FIG. 9), we also investigated the effects of L- or D-CP on the in vivo activation of the T cells that drive AA. […] The mean maximum score was 12±0.3 in the control-treated rats, compared with 6±0.7 in the D-CP-treated rats and 7.3±0.7 in the L-CP-treated rats (p<0.05 for the L and D-CP groups compared to the control groups).

Data set [2] deals with LNC from Mt-immunized rats. As to the kind of experiment: T-cell proliferation of LNC or A2b T cell line (Part B, amidated peptides). The format is cell-based, rat. The conditions noted are these: for Inhibition of T-cell proliferative responses to PPD and to Mt176-90: amidated peptides, LNC, 72 hr.
The subject of data set [3] is Lewis rats. As to the kind of experiment: Delayed type hypersensitivity (DTH) to PPD in AA rats (Part B). Type of data set: in vivo, rat. Particulars: 16 days after AA induction. On the procedure: Twenty μl of PPD (0.5 mg/ml in PBS) were injected intradermally into the pinna of the right ear on day 16 after AA induction; 20 μl of sterile PBS were injected in the left ear as control. The thickness of the ear was measured 48 hr later using a vernier caliper and expressed as the difference between the right and the left ear.
The activity of the T cells that mediate AA can also be detected in vivo by studying the delayed type hypersensitivity (DTH) response to PPD. We studied the DTH response to PPD 16 days after AA induction in rats treated with the three peptides.

A further data set relates to cells. Nature of the data set: Cytotoxicity when incubated with cells (Part B). The format is cell-based, rat.
A further data set concerns BALB/c mice. Nature of the data set: Delayed type hypersensitivity to oxazalone in mice. The format is in vivo, mouse. The conditions noted are these: topical treatment 1 hr after oxazalone challenge; peptides 150 μg (6 mg/kg) in DMSO; measured following day. On the procedure: Groups of 5 female inbred BALB/c mice (The Jackson Laboratory) were sensitized on the shaved abdominal skin with 100 μl of 2% Oxazalone dissolved in acetone/olive oil [4:1 (vol/vol)] applied topically. DTH sensitivity was elicited 5 days later by challenging the mice with 20 μl of 0.5% Oxazalone in acetone/olive oil, 10 μl administered topically to each side of the ear. A constant area of the ear was measured immediately before challenge and 24 h after challenge with a Mitutoyo engineer's micrometer. The individual measuring ear swelling was unaware of the identity of the groups of mice. The DTH reaction is presented as the increment of ear swelling after challenge expressed as the mean±SEM in units of 10-2 mm. One hour after the challenge the mice's ears were treated topically with either all-L CP or with 2D-CP, both dissolved in 40 μl DMSO. The activity of the peptide treatments was compared to treatment with DMSO alone for “untreated mice” and Dexamethasone (100 μg/ml in saline) as a positive control.
To test whether TCR trans-membrane peptides could inhibit the elicitation of existing DTH reactivity, groups of naïve BALB/c mice were sensitized to 2% oxazalone. Five days later, the mice were challenged with 0.5% oxazalone administered to the ear. An hour after the challenge, the mice were treated with Dimethylsulfoxide (DMSO), all-L CP 150 μg (6 mg/kg) in DMSO, 2D-CP 150 μg (6 mg/kg) in DMSO, or dexamethasone, applied topically. On the following day, ear thickness was measured the swelling of DMSO treated mice (0.33±0.01 mm) was compared to that of mice treated with all-L CP (0.30±0.01 mm), 2D-CP (0.27±0.01 mm) and Dexamethasone (0.15±0.02 mm). […] Thus, 2D-CP can inhibit a T-cell mediated immune reaction in subjects already sensitized to the antigen.

A further data set has as its system rat TCR. As to the kind of experiment: Co-immunoprecipitation of fluorescence-labeled peptides with TCR molecules. The conditions noted are these: Rho-labeled peptides. Type of data set: binding. The method, then:
Activated A2b T cells (2×10^6) were cultured for 1 hr at 37° C. in the presence of CP or 2D-CP (25 μg/ml), or 2G-CP, and lysed for 15 min on ice in 0.1 ml lysis buffer (Adachi et al., 1996). Insoluble material was removed by centrifugation at 10.000 g for 10 min at 4° C. The lysate was then incubated overnight with Protein A-plus Agarose beads (Santa Cruz Biotechnology Inc., Santa Cruz, Calif., USA) bound to antibodies to the rat TCR or MHC class 1. The antibodies reactive against the rat TCR (clone R73) or HSP60 (clone LKI) were purified from the respective hybridomas at our lab; antibodies to rat CD28, actin and the rat MHC class 1 were purchased from Serotec (Oxford, UK). After an overnight incubation at 4° C., the beads were washed with lysis buffer, boiled for 10 minutes and the protein supernatant run in a 4-20% SDS-PAGE. The presence of co-immunoprecipitated peptide was detected by the Typhoon 9400 variable mode imager.
Next, co-immunoprecipitation experiments were performed. The affinity of the TCR/CP, the TCR/2D-CP and TCR/2G-CP interactions were compared by performing a series of co-precipitation experiments using different concentrations of Rho-labeled CP, 2D-CP and 2G-CP peptides.

The test system of data set [4] is Lewis rats. As to the kind of experiment: Delayed type hypersensitivity to PPD in AA rats (Part A). Type of data set: in vivo, rat. The conditions noted are these: 16 days after AA induction, ear thickness 48 hr after PPD. On the procedure: Twenty μl of PPD (0.5 mg/ml in PBS) were injected intradermally into the pinna of the right ear of each rat on day 16 after AA induction; 20 μl of sterile PBS were injected in the left ear as control. The thickness of the ear was measured 48 hr later using a vernier caliper and expressed as the difference between the right and the left ear (Quintana et al., 2005).

The test system of data set [5] is Lewis rats. As to the kind of experiment: Adjuvant arthritis (AA) in Lewis rats (Part A). The format is in vivo, rat. On the procedure:
as §1, with “the experimental T-cell mediated autoimmune disease adjuvant arthritis (AA) was used.” for “we used AA as a model system.”, “(10” for “(0.5”, “all-L CP, 2D-CP” for “L-CP, D-CP”, “16 (Quintana et al., 2002).” for “16.”
Next, the contribution of the secondary structure and the side-chains to the inhibitory effects of CP on T cell activation In vivo was analyzed, using the experimental autoimmune disease Adjuvant Arthritis (AA). Immunization of Lewis rats with Mt triggers AA, an autoimmune disease driven by Mt-specific T cells that cross-react with self-antigen (Holoshitz et al., 1984; Holoshitz et al., 1983). PPD and Mt176-90 are targeted by the arthritogenic T-cell response (Anderton et al., 1994); indeed immunomodulatory therapies that inhibit the progression of arthritis have been associated with a decreased T cell response to PPD and Mt176-90 and with a diminished delayed type hypersensitivity (DTH) response to PPD (van Eden et al., 1985).

The next data set deals with target cells. As to the kind of experiment: Cytotoxic effect on the target cells (Part A). The conditions noted are these: incubated with the target cells.
Another data set relates to LNC from Mt primed rats. Nature of the data set: T-cell proliferation of LNC from Mt-immunized rats activated with PPD or Mt176-90 (Part A). The conditions noted are these: LNC, 72 hr, 3H-thymidine incorporation. The format is cell-based, rat. On the technique in general: Dividing cells build labelled thymidine or BrdU into new DNA.

On to “GLRILLLKV-NH2 [L-CP, X-GLRILLLKV-NH2, reference compound]”, for which, in the data set on Lewis rats [1], the “Mean maximum AA score” value was 7.3±0.7; the “Effect on adjuvant arthritis (clinical score and ankle swelling)” value was “significantly milder arthritis”. In addition, in [2], the “Inhibition of T-cell proliferative responses to PPD and to Mt176-90” value is “inhibited the T-cell proliferative responses to PPD and to Mt176-90 in a dose-dependent manner”. In the data set on Lewis rats [3], the “Reduction in the DTH response to PPD” value is on record as 39%. Also, in the data set on cells, the Cytotoxicity result was “showed no cytotoxicity”.
`C[C@@H]1C[C@H]2[C@@H]3CCC4=CC(=O)C=C[C@]4(C)[C@@]3(F)[C@@H](O)C[C@]2(C)[C@@]1(O)C(=O)CO` [Dexamethasone, reference compound] returned an Ear swelling with BALB/c mice of 0.15±0.02 mm.
With “GLRILLLKV [all-L CP] (GLRILLLKV-NH2; listed as Homo sapiens) [wild-type core peptide derived from murine TCRα transmembrane domain, reference compound]”, the “Co-precipitation with the TCR” value in the data set with rat TCR (activated A2b T cells) is reported as “can be co-precipitated with the TCR”. Further, in the data set with rat TCR (different concentrations), the “Affinity of TCR interaction compared with TCR/2D-CP” value was “higher affinity”. The “Reduction in the DTH response to PPD” value in the data set with Lewis rats [4] is recorded as 39%. Further, the “Mean maximum AA score” value in the data set on Lewis rats [5] (100 μg peptide per rat at AA induction, maximum possible score 16) is 7.7±0.7. In the data set on Lewis rats [5] (100 μg peptide per rat with Mt at the time of AA induction), the “Effect on adjuvant arthritis (clinical score and paw swelling)” value was “significantly milder arthritis”. Also, the Cytotoxic effect result in the data set with target cells is given as “None of the peptides (all-L CP, 2D-CP or 2G CP) had a cytotoxic effect”. Moreover, the “Inhibition of T-cell proliferation to PPD and to Mt176-90” value in the data set with LNC from Mt primed rats was “inhibited T-cell proliferation to PPD and to Mt176-90 in a dose-dependent manner”. Moreover, the Ear swelling in the data set on BALB/c mice is given as 0.30±0.01 mm.
For `CC[C@@H](C)[C@@H](NC(=O)[C@@H](CCCNC(=N)N)NC(=O)[C@@H](CC(C)C)NC(=O)CN)C(=O)N[C@H](CC(C)C)C(=O)N[C@H](CC(C)C)C(=O)N[C@H](CC(C)C)C(=O)N[C@H](CCCCN)C(=O)N[C@@H](C(N)=O)C(C)C` [D-CP, X-GLRILLLKV-NH2] (H-G[dL][dR][dI][dL][dL][dL][dK][dV]-NH2), in the data set with Lewis rats [1], the “Mean maximum AA score” value was determined as 6±0.7; the “Effect on adjuvant arthritis (clinical score and ankle swelling)” value is given as “significantly milder arthritis”. Besides, the “Inhibition of T-cell proliferative responses to PPD and to Mt176-90” value in data set [2] is “inhibited the T-cell proliferative responses to PPD and to Mt176-90 in a dose-dependent manner”. Further, the “Inhibition of T-cell proliferation compared with L-CP” value in data set [2] (at the lower concentrations) was “consistently higher”. Moreover, the “Reduction in the DTH response to PPD” value with Lewis rats [3] is listed as 48%. Moreover, in the data set with cells, the Cytotoxicity result was “showed no cytotoxicity”.
